{
  "source": "paper PMC12029898",
  "about": "“Cellular Metabolomics Reveals Differences in the Scope of Liver Protection Between Ammonium-Based Glycyrrhizinate and Magnesium Isoglycyrrhizinate” (Metabolites, 2025)",
  "assay": "Pharmacokinetics after oral gavage in rats (plasma, HPLC)",
  "type": "in vivo, Sprague Dawley rats",
  "details": "rat",
  "source_text": "Nine male Sprague Dawley rats, each weighing approximately 250 g ± 25 g, were meticulously selected as the experimental subjects (sourced from Beijing SPF Biotechnology Co., Ltd., (Beijing, China) SPF grade, licensed under SCXK (Jing) 2019-0010). The experimental protocol was approved by the Institutional Animal Care and Use Committee of Hebei Medical University and conformed to the Guide for Care and Use of Laboratory Animals (approval NO. 2023040). Prior to and throughout the experimental period, the rats were provided with unrestricted access to standard rodent chow and water. The housing facilities for these animals adhered strictly to the standards outlined by the International Association for the Evaluation and Certification of Laboratory Animal Care, ensuring optimal conditions for the animals’ wellbeing. The experimental feeding environment was maintained at a temperature of 22–24 °C, with a relative humidity of 50 ± 5%, and a 12-h light/dark cycle to mimic natural diurnal rhythms. The rats were randomly allocated into three distinct groups, with an equal distribution of three rats per group. MONO, DIAM, and MAGN were administered orally at a dose of 20 mg/kg. The amount administered was calculated as the contents of glycyrrhizinate or magnesium isoglycyrrhizinate. Each compound was dissolved in 0.5% carboxymethylcellulose sodium (CMC-Na) solution and delivered immediately to rats via gastric gavage. Blood samples of 0.2 mL were obtained at various time points post-administration (0.5, 1, 2, 4, 8, 12, 24, and 48 h) and centrifuged at 1500× g for 10 min at 4 °C, allowing for the separation of plasma, which was collected and stored at −20 °C for subsequent analysis.\nFifty microliters (50 μL) of plasma was obtained and spiked with 10 μL of dipyridamole solution as an internal standard. Subsequently, 100 μL of acetonitrile was added to precipitate the proteins, followed by vortex mixing. The mixture was centrifuged at 6000× g for 10 min at 4 °C. The resulting precipitate was discarded, and the supernatant was evaporated to dryness under a nitrogen stream at 60 °C. The residual precipitate was redissolved in 200 μL of mobile phase, vortexed for 5 min, and sonicated for 30 s. Following this, the solution was centrifuged again at 6000× g for 10 min at 4 °C. Then, 10 μL of the supernatant was injected and the chromatogram was recorded for analysis.\nHPLC was employed using the Agilent 1200 series system (Agilent Technologies, Wilmington, DE, USA) with Agilent Chemstation LC B.04.03 Software. The separation was on a Venusil MP C18(2) chromatographic column (150 × 4.6 mm, 5 μm, Agela Technologies, Tianjin, China) based on the United States Pharmacopeia with adjustments performed. Isocratic elution with a mixture of 40 volumes of acetonitrile and 60 volumes of water (containing 0.5% acetic acid) was used. The flow rate and temperature were 1.0 mL/min and 40 °C, respectively. A volume of 10 μL of the sample was injected under 254 nm for analyses and with three repetitions for each test (n = 3). All the pharmacokinetic data were calculated by Drug and Statistics (DAS) 2.0 software (Mathematical Pharmacology Professional Committee of China, Shanghai, China) and presented as mean ± SD. The main parameters such as the area under the curve (AUC), the maximum plasma concentration (Cmax), the time to Cmax (Tmax), and elimination half-life (t1/2) were tabulated.",
  "note": "Like-named read-outs stand apart in the source and are kept apart here.",
  "data": [
    {"smiles": "CC1(C)[C@@H](O[C@H]2O[C@H](C(=O)O)[C@@H](O)[C@H](O)[C@H]2O[C@@H]2O[C@H](C(=O)O)[C@@H](O)[C@H](O)[C@H]2O)CC[C@]2(C)[C@H]3C(=O)C=C4[C@@H]5C[C@@](C)(C(=O)O)CC[C@]5(C)CC[C@@]4(C)[C@]3(C)CC[C@@H]12", "note": "[DIAM, diammonium glycyrrhizinate]", "values": [
      {"measurement": "AUC(0-t)", "setting": "oral 20 mg/kg, n = 3", "result": "358.04 ± 56.36", "unit": "µg·h/mL"},
      {"measurement": "Cmax", "setting": "oral 20 mg/kg, n = 3", "result": "18860 ± 2030", "unit": "ng/mL"},
      {"measurement": "Tmax", "setting": "oral 20 mg/kg, n = 3", "result": "6 ± 0", "unit": "h"},
      {"measurement": "t1/2", "setting": "oral 20 mg/kg, n = 3", "result": "11.57 ± 1.29", "unit": "h"}
    ]},
    {"smiles": "CC1(C)[C@@H](O[C@H]2O[C@H](C(=O)O)[C@@H](O)[C@H](O)[C@H]2O[C@@H]2O[C@H](C(=O)O)[C@@H](O)[C@H](O)[C@H]2O)CC[C@]2(C)[C@H]3C(=O)C=C4[C@H]5C[C@@](C)(C(=O)O)CC[C@]5(C)CC[C@@]4(C)[C@]3(C)CC[C@@H]12", "note": "[MAGN, magnesium isoglycyrrhizinate]", "values": [
      {"measurement": "half-life", "setting": "male, Sprague Dawley, po, 20 mg/kg, n = 3", "result": "23.7 ± 2.44", "unit": "h"},
      {"measurement": "AUC(0-t)", "setting": "male, Sprague Dawley, po, 20 mg/kg, n = 3, read-out: AUC0-t", "result": "552 ± 120", "unit": "µg·h/mL"},
      {"measurement": "Cmax", "setting": "male, Sprague Dawley, po, 20 mg/kg, n = 3, read-out: Cmax", "result": "23200 ± 4180", "unit": "ng/mL"},
      {"measurement": "Tmax", "setting": "male, Sprague Dawley, po, 20 mg/kg, n = 3, read-out: Tmax", "result": 9.66, "unit": "h"},
      {"measurement": "Tmax", "setting": "oral 20 mg/kg, n = 3", "result": "9.33 ± 2.31", "unit": "h"}
    ]}
  ]
}
